The text below walks through data of patent publication US20260077055A1, “COMPOSITIONS OF POLYPLEXES AND SAPONINS” (SAPREME TECHNOLOGIES B.V., priority 2022, published 2026).

The structures appear in SMILES notation.

This test has as its system A2058 cancer cells. Nature of the test: pEGFP-N3 polyplex transfection of A2058 cells, light microscopy. Type of test: cell-based. The settings on record: 72 h; SO1861-EMCH or SO1861 = 40 nM supplemented to PAMAM G5-(PEG N3)3.5 polyplexes. As to the method: Spectrophotometry: Concentrations were determined using either a Thermo Nanodrop 2000 spectrometer or Perkin Elmer Lambda 365 Spectrophotometer. DLS measurements: DLS measurements were performed on a Malvern Nano ZS (Malvern Instruments, U.K.), operating at 633 nm with a 173° scattering angle, at 25 or 37° C. DLS mean diameters were obtained from the intensity particle size distribution provided by Malvern Zetasizer Software. DLS histograms were obtained from the intensity particle size distributions. Zeta-potential: The zeta-potential values of the polyplexes were obtained by laser doppler anemometry (LDA), measuring the mean electrophoretic mobility (Malvern Zetasizer Nano ZS, Malvern Instruments, U.K.). Measurements were performed in 10 mM HEPES pH 7.1, 150 mM NaCl. TEM measurements: TEM measurements were performed on a JEOL JEM-1011 operated at 100 kV electron microscope, equipped with a camera S5 MegaView G2. […] Infrared Spectroscopy: FT-IR spectra were recorded on a Bruker Vertex 70v, equipped with a RockSolid interferometer, after preparing the samples (1-2 mg) as KBr pellets. […] NMR Spectroscopy: 1H NMR spectra were recorded on a 11.7 T Bruker DRX-500 spectrometer. […] Experiments were recorded acquiring 64-512 scans, with a pre-scan delay (d1) of 12 s, and an acquisition time (aq) of 4 s at 300 K. 13C NMR spectrum was recorder on a 9.39 T Varian Innova 400 spectrometer. […]

Consider `CC(=O)OC1C(C)OC(OC2C(C)OC(OC(=O)[C@]34CCC(C)(C)CC3C3=CCC5[C@@]6(C)CC[C@H](OC7OC(C(=O)O)C(O)C(OC8OCC(O)C(O)C8O)C7OC7OC(CO)C(O)C(O)C7O)[C@@](C)(/C=N/NC(=O)CCCCCN7C(=O)C=CC7=O)C6CC[C@@]5(C)[C@]3(C)C[C@H]4O)C(OC3OC(C)C(OC4OCC(O)C(OC5OC(CO)C(O)C(O)C5O)C4O)C(O)C3O)C2O)C(O)C1OC1OCC(O)C(O)C1O` (stereo partly shown) [SO1861-EMCH], for which the “pEGFP-N3 transfection (eGFP expression)” value is given as “marginal transfection”.
